Data on ten molecules can be found in ChEMBL document CHEMBL1201862, “PubChem BioAssay data set” (2004).

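Cultured in 96-well plates, cells were exposed to test compound for 48 hours across five concentrations. GI50 = concentration required for 50% inhibition of growth.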 Calls of active or inactive are those of the source. Rule as the data show it: active = GI50 up to about 1.1 µM and inactive = higher. Some results are limits rather than exact numbers.

Holding throughout (test): NCI-60 cell line screen, 48 h
Assay [1] relates to OVCAR-8.
In assay [2] the test system is LOX IMVI.
In assay [3] the test system is NCI-H522.
Assay [4] relates to HL-60.
Assay [5] deals with OVCAR-3.
For assay [6], the system named is SK-MEL-2.
Assay [7] relates to MCF7.
In assay [8] the test system is Hs-578T.
Assay [9] concerns HCT-15.
Assay [10] concerns U-251.
Assay [11] concerns SF-268.
The subject of assay [12] is HCT-116.
The test system of assay [13] is RXF 393.
Assay [14] concerns ACHN.
Assay [15] relates to OVCAR-4.
Assay [16] has as its system CAKI-1.
The subject of assay [17] is IGROV-1.
Assay [18] deals with HCC 2998.
The test system of assay [19] is A549.
Assay [20] concerns 786-0.

In the case of `COC(=O)/C=C1/OC(c2ccccc2)=CC1=O`, the GI50 in assay [1] is 15 µM (inactive); in assay [2] it was 16.2 µM (inactive); in assay [3] it was 16.9 µM (inactive); in [4], 2.24 µM (inactive); in assay [5], 17.9 µM (inactive); in assay [6], 22.5 µM (inactive). Besides, the GI50 was 11.7 µM (inactive) in assay [7]; 22.9 µM (inactive) in assay [8]; 15.6 µM in [9]; 16.4 µM (inactive) in [10]; 19.1 µM (inactive) in assay [11]; 15.9 µM (inactive) in assay [12]. Besides, the GI50 in assay [13] is 14.5 µM (inactive); in [14], 13.5 µM (inactive); in assay [15] it was 16.4 µM (inactive); in assay [16], 19.4 µM (inactive); in assay [17], 16 µM (inactive); in assay [18], 18.2 µM (inactive). For the same molecule, the GI50 in assay [19] was 29 µM (inactive); in assay [20] it was 14.5 µM (inactive).

Turning to `CCC1(CC)C(=O)N(C(=O)c2ccc(Cl)cc2)N(C(=O)c2ccccc2Cl)C1=O`, the GI50 was 89.9 µM (inactive) in assay [1]; 21 µM (inactive) in assay [2]; 14.4 µM (inactive) in assay [3]; 37.7 µM (inactive) in [4]; 27.1 µM (inactive) in assay [5]; > 100 µM (inactive) in [6]. The GI50 in [7] is 43.1 µM (inactive); in assay [8] it was 43.5 µM (inactive); in [9], 41 µM; in [10] it was 33.3 µM (inactive); in [11], 35.4 µM (inactive); in assay [12], 31.6 µM (inactive). In addition, the GI50 in assay [13] is > 100 µM (inactive); in assay [14], 36.1 µM (inactive); in [15], > 100 µM (inactive); in assay [16] it was > 100 µM (inactive); in assay [17], 3.5 µM (inactive); in [18], > 100 µM (inactive). In addition, the results for the GI50 in assay [19] and in [20] were > 100 µM (inactive) and 56.8 µM (inactive), respectively.

Regarding `C=C1C2CC[C@@](C)(O)C2[C@H]2OC(=O)C(=C)[C@@H]2C[C@H]1O` (some centres not stated), the GI50 in assay [1] was 22.3 µM (inactive); in assay [2], 15 µM (inactive); in assay [3], 14.7 µM (inactive); in assay [4], 37.2 µM (inactive); in [5], 20.4 µM (inactive); in assay [6], 20.9 µM (inactive). The GI50 in assay [7] was 14.2 µM (inactive); in assay [8], 23.4 µM (inactive); in assay [9], 16.7 µM; in assay [10], 31.9 µM (inactive); in assay [11], 49.2 µM (inactive); in assay [12], 27 µM (inactive). Also, the GI50 is 22.1 µM (inactive) in assay [13]; 10.8 µM (inactive) in [14]; 14.9 µM (inactive) in assay [15]; 12.1 µM (inactive) in assay [16]; 28.4 µM (inactive) in assay [17]; 19.1 µM (inactive) in [18]. Also, the results for the GI50 in assay [19] and in [20] were 29.3 µM (inactive) and 16.1 µM (inactive), respectively.

With `C1CSCCSCCCSCCSCCCSCCSCCCSCCSC1`, the GI50 in assay [1], in [2], in [3], in assay [4], in assay [5] and in [6] was > 100 µM (inactive) each time. The GI50 in assay [7] is > 100 µM (inactive); in assay [8], > 100 µM (inactive); in assay [9] it was greater than 100 µM; in assay [10] it was > 100 µM (inactive); in assay [11], > 100 µM (inactive); in assay [12], 62.8 µM (inactive). The GI50 in assay [13], in [14], in [15], in assay [16], in [17] and in assay [18] was > 100 µM (inactive) in each case. Moreover, the GI50 in assay [19] and in assay [20] was > 100 µM (inactive) each time.

With `COc1ccc(NC(=O)C(C#N)=C(SC)SC)cc1`, the GI50 was > 100 µM (inactive) in [2]; 57.1 µM (inactive) in assay [3]; 75.3 µM (inactive) in assay [4]; > 100 µM (inactive) in [5]; > 100 µM (inactive) in [6]; > 100 µM (inactive) in assay [7]. The GI50 is > 100 µM (inactive) in assay [8]; greater than 100 µM in assay [9]; > 100 µM (inactive) in assay [10]; > 100 µM (inactive) in assay [11]; > 100 µM (inactive) in assay [12]; > 100 µM (inactive) in [13]. Besides, the GI50 is > 100 µM (inactive) in [14]; > 100 µM (inactive) in assay [15]; 50.5 µM (inactive) in assay [16]; 58.6 µM (inactive) in assay [17]; > 100 µM (inactive) in [18]; > 100 µM (inactive) in assay [19]. Also, the GI50 in [20] is > 100 µM (inactive).

For `CC1=C(C(=O)NC2CCCCC2)CC(C(=O)NC2CCCCC2)=C(C)N1`, the GI50 was > 100 µM (inactive) in assay [2]; > 100 µM (inactive) in assay [3]; 71.6 µM (inactive) in assay [4]; > 100 µM (inactive) in assay [5]; > 100 µM (inactive) in assay [6]; > 100 µM (inactive) in assay [7]. Also, the GI50 in assay [8] was 24.9 µM (inactive); in assay [9], greater than 100 µM; in assay [10], > 100 µM (inactive); in assay [11], 39.9 µM (inactive); in assay [12], > 100 µM (inactive); in [13], > 100 µM (inactive). The GI50 in [14], in [15], in [16], in assay [17], in [18] and in [19] was > 100 µM (inactive) throughout. In addition, in [20], the GI50 was > 100 µM (inactive).

For the molecule `CCCN(CCC)C(=S)N/N=C(/C)c1ccccc1O`, the GI50 in assay [1] was 3.42 µM (inactive); in [2], 3.46 µM (inactive); in assay [3], 1.19 µM (inactive); in assay [4], 3.96 µM (inactive); in assay [5], 2.51 µM (inactive); in assay [6], 6.7 µM (inactive). Besides, the GI50 is 4.02 µM (inactive) in assay [7]; > 70 µM (inactive) in assay [8]; 3.48 µM in assay [9]; 3.84 µM (inactive) in assay [10]; 4.42 µM (inactive) in assay [11]; 4.04 µM (inactive) in assay [12]. Further, the GI50 is 23.6 µM (inactive) in [13]; 3.97 µM (inactive) in assay [14]; 5.96 µM (inactive) in [15]; 8.49 µM (inactive) in [16]; 4.43 µM (inactive) in [17]; 10.3 µM (inactive) in [18]. In addition, the results for the GI50 in assay [19] and in assay [20] were 5.64 µM (inactive) and 3.32 µM (inactive), respectively.

`NNC(=S)N/N=C(\C(=O)Nc1cccc(O)c1)C1C(=O)NC(=S)NC1=O`: the GI50 in assay [1], in assay [2], in [3], in assay [4], in assay [5] and in assay [6] was > 100 µM (inactive) in each case. The GI50 in assay [7] is > 100 µM (inactive); in assay [8] it was > 100 µM (inactive); in assay [9], greater than 100 µM; in assay [10] it was > 100 µM (inactive); in [11], > 100 µM (inactive); in [12], > 100 µM (inactive). Moreover, the GI50 in assay [13] is > 100 µM (inactive); in [14] it was > 100 µM (inactive); in assay [15] it was 36.3 µM (inactive); in assay [16], > 100 µM (inactive); in [17] it was > 100 µM (inactive); in assay [18] it was > 100 µM (inactive). The GI50 in assay [19] and in assay [20] was > 100 µM (inactive) each time.

Consider `CC1=NN(C(=O)CC(=O)Nc2cccc(C)c2)C(=O)C1/N=N/c1ccc(S(=O)(=O)CCOS(=O)(=O)O)cc1` (configuration not stated), for which the GI50 is 0.486 µM (active) in assay [1]; 0.345 µM (active) in assay [2]; 0.291 µM (active) in [3]; 1.33 µM (inactive) in assay [4]; 3.65 µM (inactive) in [5]; 0.313 µM (active) in [6]. Besides, the GI50 in [7] is 0.746 µM (active); in assay [8], 4.18 µM (inactive); in assay [9], 0.319 µM; in assay [10] it was 3.32 µM (inactive); in assay [11], 5.57 µM (inactive); in [12] it was 0.373 µM (active). Also, the GI50 in assay [13] is 1.62 µM (inactive); in assay [14], 4.72 µM (inactive); in assay [15], 9.42 µM (inactive); in assay [16], 0.546 µM (active); in assay [17], 0.63 µM (active); in [18] it was 2.17 µM (inactive). In addition, the GI50 is 4.48 µM (inactive) in [19] and 0.463 µM (active) in assay [20].

For `CSc1c(C#N)c(N)n(-c2ccc(C)cc2)c(=O)c1C#N`, the GI50 in assay [1] is > 100 µM (inactive); in assay [2], 88.9 µM (inactive); in assay [3], 98.9 µM (inactive); in assay [4] it was > 100 µM (inactive); in assay [5], > 100 µM (inactive); in [6] it was > 100 µM (inactive). Moreover, the GI50 was > 100 µM (inactive) in assay [7]; > 100 µM (inactive) in assay [8]; greater than 100 µM in assay [9]; > 100 µM (inactive) in assay [10]; > 100 µM (inactive) in [11]; > 100 µM (inactive) in assay [12]. Besides, the GI50 in [13], in assay [15], in assay [16], in [17], in assay [18] and in assay [19] was > 100 µM (inactive) in each case. Moreover, the GI50 in [20] was > 100 µM (inactive).
